From patent US20020155192A1, “Yeast transport isoforms” (priority 2000, published 2002)
Where two headings read alike, the source gives them in different places.

Tests used:
[1] = target: T1, Odc1p (Saccharomyces cerevisiae, UniProt Q03028); assay: Effect of inhibitors and external compounds on the [14C]oxoglutarate/oxoglutarate exchange by proteoliposomes reconstituted with Odc1p; format: biochemical; conditions: for Inhibition (%) of [14C]oxoglutarate/oxoglutarate exchange: 20 mM internal oxoglutarate, 0.4 mM [14C]oxoglutarate, 45 seconds, inhibitors 4 mM, except mercurials 10 μM, carboxyatractyloside 0.1 mM, N-ethylmaleimide and α-cyanocinnamate 2 mM; for inhibition of [14C]oxoglutarate/oxoglutarate exchange (in words): Table III
T1 construct: made in house; host or cells: S. cerevisiae odc1Δodc2Δ (YPH499 background) carrying pYES2-based pODC1; purified from mitochondria on Ni-NTA agarose
T1 sequence (Q03028 1-310): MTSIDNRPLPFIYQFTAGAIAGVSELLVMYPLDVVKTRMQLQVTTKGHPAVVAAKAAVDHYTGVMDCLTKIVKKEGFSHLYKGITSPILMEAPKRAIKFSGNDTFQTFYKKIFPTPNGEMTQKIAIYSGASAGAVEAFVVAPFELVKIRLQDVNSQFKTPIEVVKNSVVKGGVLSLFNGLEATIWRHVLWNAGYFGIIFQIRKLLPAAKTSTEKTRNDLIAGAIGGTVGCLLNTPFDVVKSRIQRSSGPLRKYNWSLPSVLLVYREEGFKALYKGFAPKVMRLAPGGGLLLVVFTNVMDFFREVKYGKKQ
Procedure: FIG. 5. Effect of dicarboxylates and 2-oxodicarboxylates with different carbon chain length on the rate of [^14C]oxoglutarate uptake into proteoliposomes reconstituted with recombinant Odc1p. Proteoliposomes were preloaded with 20 mM oxoglutarate and reconstituted with recombinant Odc1p. Transport was initiated by the addition of 0.4 mM [^14C]oxoglutarate and terminated after 45 seconds. Oxalate, malonate, succinate, glutarate, adipate, pimelate, suberate (▪) and the corresponding 2-oxoacids (●) were added simultaneously with [1^4C]oxoglutarate at 4.0 mM concentration.
(§1) Reconstitution of the ODC proteins into liposomes—Purified ODC proteins were reconstituted by cyclic removal of the detergent with a hydrophobic column (13). The composition of the initial mixture used for reconstitution was: 200 μl of purified isoform (0.3-0.4 μg of protein), 70 μl of 10% Triton X-114, 100 μl of 10% phospholipids in the form of sonicated liposomes, 20 mM oxoglutarate (except where otherwise indicated), 10 mM Pipes (pH 7.0), 0.7 mg of cardiolipin (Sigma) and water to a final volume of 700 μl. These components were mixed thoroughly, and the mixture was recycled 13 times through an Amberlite column (Supelco) (3.0 cm×0.5 cm) preequilibrated with a buffer containing 10 mM Pipes (pH 7.0) and with the substrate at the same concentration as in the starting mixture. All operations were performed at 4° C., except the passages through Amberlite, which were carried out at room temperature.
(§2) External substrate was removed from proteoliposomes on a Sephadex G-75 column preequilibrated with buffer F (50 mM NaCl and 10 mM PIPES, pH 7.0). Transport at 25° C. was started by adding [^14C]oxoglutarate (unless otherwise indicated) to the proteoliposomes, and terminated by addition of 30 mM pyridoxal 5′-phosphate and 10 mM bathophenanthroline (the “inhibitor-stop” method (13)). In controls, inhibitors were added with the labelled substrate. The external radioactivity was removed on Sephadex G-75 and the internal radioactivity was measured. […] The initial rate of transport was calculated in mmol/min per g protein from the time course of isotope equilibration (13). Various other transport activities were also assayed by the inhibitor-stop method. For efflux measurements, the internal substrate pool of the proteoliposomes was made radioactive by carrier-mediated exchange equilibration (13) with 0.1 mM [^14C]oxoglutarate added at high specific radioactivity. After 60 min, the residual external radioactivity was removed by passing the proteoliposomes again through a column of Sephadex G-75. Efflux was started by adding unlabelled external substrate or buffer F alone and terminated by adding the inhibitors indicated above.
(§3) In addition, the ability of non-radioactive potential substrates to inhibit the oxoglutarate/oxoglutarate exchange was examined.
Proteoliposomes were preloaded internally with 20 mM oxoglutarate and transport was initiated by the addition of 0.4 mM [^14C]oxoglutarate.

[2] = target: T2, Odc2p (Saccharomyces cerevisiae, UniProt Q99297); assay: Effect of inhibitors and external compounds on the [14C]oxoglutarate/oxoglutarate exchange by proteoliposomes reconstituted with Odc2p; format: biochemical; conditions: for Inhibition (%) of [14C]oxoglutarate/oxoglutarate exchange: 20 mM internal oxoglutarate, 0.4 mM [14C]oxoglutarate, 45 seconds, inhibitors 4 mM, except mercurials 10 μM, carboxyatractyloside 0.1 mM, N-ethylmaleimide and α-cyanocinnamate 2 mM; for inhibition of [14C]oxoglutarate/oxoglutarate exchange (in words): Table III
T2 construct: made in house; host or cells: S. cerevisiae odc1Δodc2Δ (YPH499 background) carrying pYES2-based pODC2; purified from mitochondria on Ni-NTA agarose
T2 sequence (Q99297 1-307): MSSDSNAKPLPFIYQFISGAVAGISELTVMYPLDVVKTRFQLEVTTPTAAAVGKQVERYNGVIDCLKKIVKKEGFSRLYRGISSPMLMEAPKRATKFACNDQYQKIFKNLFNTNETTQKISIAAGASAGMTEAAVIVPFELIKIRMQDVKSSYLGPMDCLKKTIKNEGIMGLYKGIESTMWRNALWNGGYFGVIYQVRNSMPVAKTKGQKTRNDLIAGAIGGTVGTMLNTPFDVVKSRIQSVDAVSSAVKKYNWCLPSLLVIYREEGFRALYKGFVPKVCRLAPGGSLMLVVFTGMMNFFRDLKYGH
Procedure: as §1, §2, §3
Proteoliposomes were preloaded internally with 20 mM oxoglutarate and transport was initiated by the addition of 0.4 mM [^14C]oxoglutarate. The incubation time was 45 seconds. Thiol reagents and α-cyanocinnamate were added 2 min before the labelled substrate; the other inhibitors and external substrates were added together with [^14C]oxoglutarate. The final concentration of the inhibitors was 4 mM, except for mercurials (10 μM), carboxyatractyloside (0.1 mM), N-ethylmaleimide and α-cyanocinnamate (2 mM).

[3] = Odc1p, added with 0.4 mM [14C]oxoglutarate, 4.0 mM in FIG. 5, partly data not shown

Compound	Inhibition (%) of [14C]oxoglutarate/oxoglutarate exchange ([1]; Odc1p) [%]	inhibition of [14C]oxoglutarate/oxoglutarate exchange (in words) ([1]; Odc1p)	Inhibition (%) of [14C]oxoglutarate/oxoglutarate exchange ([2]; Odc2p) [%]	inhibition of [14C]oxoglutarate/oxoglutarate exchange (in words) ([2]; Odc2p)	effect of non-radioactive potential substrates on the rate of oxoglutarate uptake (in words) [1, 3]	effect of non-radioactive potential substrates on the rate of oxoglutarate uptake (in words) ([2]; Odc2p, data not shown)	also measured
O=C(O)CC(C(=O)O)c1ccccc1 (stereo not shown) [Phenylsuccinate]	23	rather poorly	22	rather poorly	–	–	–
N[C@@H](CO)C(=O)O [serine]	–	–	–	–	no effect	no effect	–
NC(C(=O)O)C(O)C(=O)O (racemic) [DL-Threo-hydroxyaspartate]	–	–	–	–	no affect	no affect	–
C[C@H](N)C(=O)O [alanine]	–	–	–	–	no effect	no effect	–
O=C(O)[C@H](O)[C@@H](O)C(=O)O [L-tartrate]	–	–	–	–	more efficiently than succinate	more efficiently than succinate	–
NCC(=O)O [glycine]	–	–	–	–	no effect	no effect	–
NCCCC[C@H](N)C(=O)O [lysine]	–	–	–	–	no effect	no effect	–
CC(C)[C@H](N)C(=O)O [valine]	–	–	–	–	no effect	no effect	–
CCN1C(=O)C=CC1=O [N-Ethylmaleimide]	65	inhibited considerably	43	inhibited considerably	–	–	–
O=C(O)CC(O)C(=O)O (stereo not shown) [malate]	–	–	–	–	–	–	increase of the extent of inhibition of oxoglutarate uptake with respect to the corresponding dicarboxylate ([1]; Odc1p, C4 hydroxydicarboxylate versus C4 dicarboxylate, not shown): about 10 fold; increase of the extent of inhibition of oxoglutarate uptake with respect to the corresponding dicarboxylate ([2]; Odc2p, C4 hydroxydicarboxylate versus C4 dicarboxylate, not shown): about 10 fold
COC(CNC(=O)c1ccccc1OCC(=O)O)[CH2][Hg][OH] (stereo not shown) [Mersalyl]	–	inhibited strongly	100	inhibited strongly	–	–	–
N#C/C(=C\c1ccccc1)C(=O)O [α-Cyanocinnamate]	86	inhibited strongly	80	inhibited strongly	–	–	–
C=C1[C@@H]2CC[C@H]3[C@]4(C)C[C@H](O[C@@H]5O[C@H](CO)[C@@H](OS(=O)(=O)O)[C@H](OS(=O)(=O)O)[C@H]5OC(=O)CC(C)C)CC(C(=O)O)(C(=O)O)[C@H]4CC[C@]3(C2)[C@H]1O [Carboxyatractyloside]	7	little or no effect	10	little or no effect	–	–	–
hydroxyglutarate	–	–	–	–	–	–	effect of non-radioactive potential substrates on the rate of oxoglutarate uptake (in words) [1]: slightly less effective than glutarate; effect of non-radioactive potential substrates on the rate of oxoglutarate uptake (in words) [2]: slightly less effective than glutarate
O=C(O)[C@@H](O)[C@H](O)C(=O)O [D-tartrate]	–	–	–	–	more efficiently than succinate	more efficiently than succinate	–
O=C(O)c1cccc(C(=O)O)c1C(=O)O [1,2,3-Benzenetricarboxylate]	41	rather mild inhibitory effect	37	rather mild inhibitory effect	–	–	–
N[C@@H](Cc1c[nH]cn1)C(=O)O [histidine]	–	–	–	–	no effect	no effect	–
CC(=O)CCCC(=O)O [5-oxohexanoate]	–	–	–	–	–	–	effect of oxomonocarboxylates on the rate of uptake of 0.4 mM oxoglutarate (in words) ([1]; Odc1p, 8 mM, 20 times greater than the substrate, data not shown): did not influence; effect of oxomonocarboxylates on the rate of uptake of 0.4 mM oxoglutarate (in words) ([2]; Odc2p, 8 mM, 20 times greater than the substrate, data not shown): did not influence
O=S(=O)(O)c1cc[c]([Hg][Cl])cc1 [p-Chloromercuriphenylsulfonate]	98	inhibited strongly	100	inhibited strongly	–	–	–
[Cl][Hg][Cl] [HgCl2, mercuric chloride]	100	inhibited strongly	98	inhibited strongly	–	–	–
O=C(O)C(O)C(=O)O [tartronate]	–	–	–	–	completely ineffective	completely ineffective	–
NC(=O)C[C@H](N)C(=O)O [asparagine]	–	–	–	–	no effect	no effect	–
CCCCC(C(=O)O)C(=O)O [Butylmalonate]	118	rather poorly	25	rather poorly	–	–	–
C[C@@H](O)[C@H](N)C(=O)O [threonine]	–	–	–	–	no effect	no effect	–
N=C(N)NCCC[C@H](N)C(=O)O [arginine]	–	–	–	–	–	–	effect of non-radioactive potential substrates on the rate of oxoglutarate uptake (in words) [1]: no effect; effect of non-radioactive potential substrates on the rate of oxoglutarate uptake (in words) [2]: no effect
